Results as given in ChEMBL document CHEMBL1132938, “Novel synthetic oleanane and ursane triterpenoids with various enone functionalities in ring A as inhibitors of nitric oxide production in mouse macrophages” (J Med Chem, 2000).

Organism: Mus musculus
Assay: Percent inhibition of nitric oxide production induced by IFN-uM concentration
Format: functional
Parameters: concentration or dose not given beside the values

Compound: C=C(C)[C@@H]1CC[C@]2(C)[C@H](CC=C3C4[C@@H](C)[C@H](C)CC[C@]4(C(=O)O)CC[C@]32C)[C@@]1(C)CCC=O (stereo partly drawn)
- Inhibition: 55%

Compound: CC1(C)CCC2(C(=O)O)CC[C@]3(C)C(=CC[C@@H]4[C@@]5(C)CCC(=O)NC(C)(C)[C@@H]5CC[C@]43C)C2C1 (stereo partly drawn)
- Inhibition: 51%

Compound: COC(=O)C12CCC(C)(C)CC1[C@H]1C(=O)C[C@@H]3[C@@]4(C)CC[C@H](OC(C)=O)C(C)(C)[C@@H]4CC[C@@]3(C)[C@]1(C)CC2 (stereo partly drawn)
- Inhibition: 0%

Compound: COC(=O)C12CC[C@@H](C)[C@H](C)C1C1=CC[C@@H]3[C@@]4(C)CC[C@H](O)C(C)(C)[C@@H]4CC[C@@]3(C)[C@]1(C)CC2 (stereo partly drawn)
- Inhibition: 0%

Compound: CC1(C)CCC2(C=O)CC[C@]3(C)C(=CC[C@@H]4[C@@]5(C)CCC(=O)C(C)(C)[C@@H]5CC[C@]43C)C2C1 (stereo partly drawn)
- Inhibition: 11%

Compound: CC1(C)CCC2(CO)CC[C@]3(C)[C@@](O)(C2C1)[C@@H](O)C[C@@H]1[C@@]2(C)CC[C@H](O)C(C)(C)[C@@H]2CC[C@]13C (stereo partly drawn)
- Inhibition: 22%

Compound: CC(=O)O[C@H]1CC[C@]2(C)[C@H]3CC=C4C5[C@@H](C)[C@H](C)CCC5(C(=O)O)CC[C@@]4(C)[C@]3(C)CC[C@H]2C1(C)C (stereo partly drawn)
- Inhibition: 0%

Compound: C[C@@H]1CCC2(C=O)CC[C@]3(C)C(=CC[C@@H]4[C@@]5(C)CCC(=O)C(C)(C)[C@@H]5CC[C@]43C)C2[C@H]1C (stereo partly drawn)
- Inhibition: 21%

Compound: CC1(C)CCC2(C(=O)O)CC[C@]3(C)C(=CC[C@@H]4[C@@]5(C)CC=CC(C)(C)[C@@H]5CC[C@]43C)C2C1 (stereo partly drawn)
- Inhibition: 0%

Compound: CC(C)C1=C2CC[C@]3(C)[C@H](CC=C4C5CC(C)(C)CCC5(C(=O)O)CC[C@]43C)[C@@]2(C)CC1 (stereo partly drawn)
- Inhibition: 0%

Compound: CC(=O)OCC12CC[C@@H](C)[C@H](C)C1C1=CC[C@@H]3[C@@]4(C)CC[C@H](OC(C)=O)C(C)(C)[C@@H]4CC[C@@]3(C)[C@]1(C)CC2 (stereo partly drawn)
- Inhibition: 0%

Compound: COC(=O)C12CCC(C)(C)CC1[C@H]1[C@H](O)C[C@@H]3[C@@]4(C)CC[C@H](OC(C)=O)C(C)(C)[C@@H]4CC[C@@]3(C)[C@]1(C)CC2 (stereo partly drawn)
- Inhibition: 0%

Compound: CC1(C)CCC2(C(=O)O)CC[C@]3(C)C(=C2C1)C=C[C@@H]1[C@@]2(C)CCC(=O)C(C)(C)[C@@H]2CC[C@]13C (stereo partly drawn)
- Inhibition: 47%

Compound: COC(=O)C12CCC(C)(C)CC1[C@]13O[C@H]1C[C@@H]1[C@@]4(C)CC[C@H](OC(C)=O)C(C)(C)[C@@H]4CC[C@@]1(C)[C@]3(C)CC2 (stereo partly drawn)
- Inhibition: 0%

Compound: C=C(C)[C@@H]1CC[C@]2(C)[C@H](CC=C3C4CC(C)(C)CC[C@]4(C(=O)OC)CC[C@]32C)[C@@]1(C)CCC#N (stereo partly drawn)
- Inhibition: 21%

Compound: COC(=O)C12CCC(C)(C)CC1[C@H]1[C@@H](O)C[C@@H]3[C@@]4(C)CC[C@H](OC(C)=O)C(C)(C)[C@@H]4CC[C@@]3(C)[C@]1(C)CC2 (stereo partly drawn)
- Inhibition: 0%

Compound: COC(=O)C12CC[C@@H](C)[C@H](C)C1C1=CC[C@@H]3[C@@]4(C)CC[C@H](OC(C)=O)C(C)(C)[C@@H]4CC[C@@]3(C)[C@]1(C)CC2 (stereo partly drawn)
- Inhibition: 15%

Compound: COC(=O)C12CCC(C)(C)CC1C1=CC[C@@H]3[C@@]4(C)CC[C@@H](Cl)C(C)(C)[C@@H]4CC[C@@]3(C)[C@]1(C)CC2 (stereo partly drawn)
- Inhibition: 2%

Compound: CC1(C)CCC2(C(=O)O)CC[C@]3(C)[C@H](C(=O)C[C@@H]4[C@@]5(C)CCC(=O)C(C)(C)[C@@H]5CC[C@]43C)C2C1 (stereo partly drawn)
- Inhibition: 37%

Compound: COC(=O)C12CC[C@@H](C)[C@H](C)C1C1=CC[C@@H]3[C@@]4(C)C=CC(=O)C(C)(C)[C@@H]4CC[C@@]3(C)[C@]1(C)CC2 (stereo partly drawn)
- Inhibition: 0%

Compound: CC1(C)CCC2(C(=O)O)CC[C@]3(C)C(=CC[C@@H]4[C@@]5(C)CC[C@@H](O)C(C)(C)[C@@H]5CC[C@]43C)C2C1 (stereo partly drawn)
- Inhibition: 18%

Compound: CC1(C)CCC2(C=O)CC[C@]3(C)[C@H](C(=O)C[C@@H]4[C@@]5(C)CCC(=O)C(C)(C)[C@@H]5CC[C@]43C)C2C1 (stereo partly drawn)
- Inhibition: 38%

Compound: C[C@@H]1CCC2(CO)CC[C@]3(C)C(=CC[C@@H]4[C@@]5(C)CC[C@H](O)C(C)(C)[C@@H]5CC[C@]43C)C2[C@H]1C (stereo partly drawn)
- Inhibition: 8%

Compound: CC(=O)O[C@H]1CC[C@]2(C)[C@H]3CC=C4[C@@H]5CC(C)(C)CC[C@]5(C(=O)O)CC[C@@]4(C)[C@]3(C)CC[C@H]2C1(C)C [ACETYL OLEANOLIC ACID]
- Inhibition: 0%

Compound: C[C@]12CCC(=O)C=C1CC[C@@H]1[C@@H]2[C@@H](O)C[C@@]2(C)[C@H]1CC[C@]2(O)C(=O)CO [HYDROCORTISONE]
- Inhibition: 80%

Compound: COC(=O)[C@]12CCC(C)(C)C[C@H]1C1=CC[C@@H]3[C@@]4(C)CC[C@H](O)C(C)(C)[C@@H]4CC[C@@]3(C)[C@]1(C)CC2 [METHYL OLEANOLATE]
- Inhibition: 0%

Compound: CC1(C)CC[C@]2(C(=O)O)CC[C@]3(C)C(=CC[C@@H]4[C@@]5(C)CC[C@H](O)C(C)(C)[C@@H]5CC[C@]43C)[C@@H]2C1 [OLEANOLIC_ACID]
- Inhibition: 38%

Compound: CC1(C)CC[C@]2(C(=O)O)CC[C@]3(C)C(=CC[C@@H]4[C@@]5(C)CCC(=O)C(C)(C)[C@@H]5CC[C@]43C)[C@@H]2C1 [OLEANONIC ACID]
- Inhibition: 16%
